Laboratory results as given in patent US9243237B2, “Method for mass production of factor VII/VIIA” (HANMI SCIENCE CO., LTD, priority 2010, dated 2016).

Legend:
Format in all cases: cell-based, Chinese hamster
[1] = tested on: CHO/dhfr- cells transformed with pX0GC-FVII; assay: Selection of human factor VII-expressing cells in MTX selection medium, expression level by enzyme immunoassay; settings: MTX concentration of 10 nM or higher
Experimental: The transformed cells of Example <2-1> were seeded at a density of 2×10^4 cells/well to 24-well plates. When the cells were grown to almost full confluence, serum-free CHO-A-SFM (Gibco, Cat. No. 05-5072EF) supplemented with 0.3 mM sodium butyrate (Sigma, Cat. No. B5887) was aliquoted in an amount of 200 μL/well, followed by incubation at 33° C. for 48 hours in a 5% CO2 incubator. The cell culture was transferred to 1.5 mL tubes and centrifuged. Expression levels of human factor VII in the supernatants were measured by taking measurements using an enzyme immunoassay kit (American Diagnostica, Cat. no. 877) according to the manufacturer's instruction. In detail, the cell culture and the standard substance enclosed in the kit were diluted to certain concentrations in physiological saline containing 0.05% Tween-20, and the dilutions were added in an amount of 100 μL to each well of the kit and allowed to react at room temperature for one hour on a plate shaker. […] Five minutes later, 50 μL of a stopping solution was added to each well, followed by measuring absorbance at 450 nm. A standard curve and a function were obtained from the concentrations of the standard solution and the absorbance values obtained. […]

[2] = tested on: hFVII-expressing recombinant CHO cell line (HMF708); assay: Growth of the cell line in mass-scale production medium (4 L incubation tanks, continuous feed) containing sodium butyrate, hFVII level by enzyme immunoassay; settings: for FVII Level (% compared to control %): 4 L, 30.0°C, 11-18 days
Experimental: (§1) The transformed cells of Example <2-1> were seeded at a density of 2×10^4 cells/well to 24-well plates. When the cells were grown to almost full confluence, serum-free CHO-A-SFM (Gibco, Cat. No. 05-5072EF) supplemented with 0.3 mM sodium butyrate (Sigma, Cat. No. B5887) was aliquoted in an amount of 200 μL/well, followed by incubation at 33° C. for 48 hours in a 5% CO2 incubator. The cell culture was transferred to 1.5 mL tubes and centrifuged. Expression levels of human factor VII in the supernatants were measured by taking measurements using an enzyme immunoassay kit (American Diagnostica, Cat. no. 877) according to the manufacturer's instruction. In detail, the cell culture and the standard substance enclosed in the kit were diluted to certain concentrations in physiological saline containing 0.05% Tween-20, and the dilutions were added in an amount of 100 μL to each well of the kit and allowed to react at room temperature for one hour on a plate shaker. After being washed four times with the washing solution enclosed in the kit, each of the wells was incubated at room temperature for one hour with 100 μL of an anti-human factor VII antibody on a plate shake. Each well was again washed four times with the washing solution and then incubated at room temperature for 30 min with 100 μL of an HRP (horseradish peroxidase)-conjugated antibody to the anti-human factor VII antibody. Subsequently, the wells were washed four times, and incubated with 100 μL of a substrate per well at room temperature. Five minutes later, 50 μL of a stopping solution was added to each well, followed by measuring absorbance at 450 nm. A standard curve and a function were obtained from the concentrations of the standard solution and the absorbance values obtained.
(§2) One vial (1×10^7 cells/mL) of the hFVII-expressing cell line which had been selected and assimilated to suspension culture in Example <2-3> was taken from a liquid nitrogen tank and thawed as soon as possible in a 37° C. bath. After being washed once with a seed culturing medium (EX-CELL CHO medium (Sigma, Cat. No. 63225C) supplemented with 0.3 g/L glutamine), the cell culture was centrifuged at 90×g for min and then inoculated into 50 mL of a seed culture medium in an Erlenmeyer flask (Corning, USA cat#431144). When grown for 1-2 days to a density of 10×10^5 cell/mL in a CO2 incubator (37° C., 5% CO2), the cells were centrifuged again in the same manner and then sub-cultured in 100 mL of a fresh seed culture medium in a new Erlenmeyer flask. The double-volume passage was continued until a sufficient number of cells were achieved.
The effect of sodium butyrate on the production of hFVII was examined when the cells were cultured on mass scale. For this, first, the recombinant CHO cell line which was being cultured was inoculated at a density of 1.2×10^7 cells/mL into 4 L of a production medium in each of incubation tanks which contained sodium butyrate (Cat. no. B5887, SIGMA, USA) at concentrations of 0.3, 1.0, 1.5 and 2.0 mM, respectively. The cells grown in the presence of 0.3 mM sodium butyrate were used as a control for comparison. To produce hVII, the cells were cultured at 30.0° C. for 11-18 days with the medium continuously fed at 0.5-1.0 VVD. The culturing was stopped when cellular activity was reduced to less than 80%. […]
In addition, after the cell cultures taken during the cultivation was centrifuged, the levels of hFVII in the supernatants were measured using an enzyme immunoassay method as in Example <2-2>.

[3] = tested on: hFVII-expressing recombinant CHO cell line (HMF708); assay: Growth of hFVII-expressing cell line in production medium containing sodium butyrate (50 mL Erlenmeyer flasks), hFVII level by enzyme immunoassay; settings: for FVII Level (% compared to control %): 30.0°C, day 4, supernatant
Experimental: as §1
as §2, with “assimilated to a suspension culture” for “assimilated to suspension culture”, “90×g for 5 min and” for “90×g for min and”, “of 10×10^5 cells/mL in a” for “of 10×10^5 cell/mL in a”, “continued until there was a sufficient” for “continued until a sufficient”, “number of cells.” for “number of cells were achieved.”
The effect of sodium butyrate on the production of hFVII was examined. For this, first, the recombinant CHO cell line which was being cultured was inoculated at a density of 5.0×10^6 cells/mL into 50 mL of a production medium in each of three Erlenmeyer flasks which contained sodium butyrate (Cat. no. B5887, SIGMA, USA) at concentrations of 0.3, 1.0 and 1.5 mM, respectively. The cells grown in the presence of 0.3 mM sodium butyrate were used as a control for comparison. The cells were cultured at 30.0° C. for four days to produce hFVII. On day 4, the cell concentration and cellular activity of the cell cultures were examined. There were no changes in cell density and cellular activity among the cell cultures of different butyrate concentrations.
In addition, after centrifugation of the cell cultures on Day 4, the levels of hFVII in the supernatants were measured using an enzyme immunoassay method as in Example <2-2>.

[4] = 0.3 mM sodium butyrate (control)
[5] = 1.5 mM sodium butyrate, control = 0.3 mM
[6] = 1.0 mM sodium butyrate, day 4, control = 0.3 mM
[7] = 1.5 mM sodium butyrate, day 4, control = 0.3 mM
[8] = day 4, among cultures with 0.3, 1.0 and 1.5 mM butyrate

Row | SMILES | expression level of human factor VII [1] | FVII Level (% compared to control %) [2, 4] | FVII Level (% compared to control %) ([2]; 1 mM sodium butyrate, control = 0.3 mM) | FVII Level (% compared to control %) [2, 5] | FVII Level (% compared to control %) ([2]; 2.0 mM sodium butyrate, control = 0.3 mM) | amounts of FVII produced ([2]; higher concentrations of sodium butyrate, in spite of reduced periods of time of production) | FVII Level (% compared to control %) [3, 4] | Final Cell Density (% compared to control) ([3]; 0.3 mM sodium butyrate (control), day 4) | FVII Level (% compared to control %) ([3]; 1.0 mM sodium butyrate, control = 0.3 mM) | Cellular Activity (% compared to control) [3, 6] | Final Cell Density (% compared to control) [3, 6] | FVII Level (% compared to control %) [3, 5] | Cellular Activity (% compared to control) [3, 7] | Final Cell Density (% compared to control) [3, 7] | production of hFVII ([3]; 0.3, 1.0 and 1.5 mM sodium butyrate) | activity at 300 µM ([3]; Cricetulus griseus, CHO, 96 h, 0.3 mM sodium butyrate (control), day 4, read-out: Cellular Activity (% compared to control)) | cell density [3, 8] | cellular activity [3, 8]
1 | CN(Cc1cnc2nc(N)nc(N)c2n1)c1ccc(C(=O)N[C@@H](CCC(=O)O)C(=O)O)cc1 [MTX, Methotrexate] | not increased |  |  |  |  |  |  |  |  |  |  |  |  |  |  |  |  | 
2 | CCCC(=O)[O-].[Na+] [Sodium Butyrate, sodium butyrate] |  | 100.0% | 154.5% | 157.7% | 127.6% | higher amounts of FVII were produced | 100.0% | 100.0% | 164.9% | 100.2% | 106.8% | 190.1% | 99.9% | 108.5% | increased in a sodium butyrate dose-dependent manner | 100% | no changes | no changes
